Read-outs that look alike come from different tables or passages of the source.
Assays:
[1] = tested on: PROb cells; experiment: N-acetyl cysteine effects on TNF-α production in vitro, PROb cells; type: cell-based, rat
Description: (§1) N-acetyl cysteine effects on TNF-α production in vitro. PC-3 and PROb cells were plated and infected with Ad.Egr-TNF.11D as described above. PC-3 and PROb cells were treated with NAC at 0 mM, 10 mM, 20 mM and 30 mM, followed immediately by the addition of 100 mM 5-FU. Conditioned medium was collected after 24 hrs of incubation at 37° C. and stored at −20° C. TNF-α levels were determined by ELISA.
(§2) PC-3 and PROb cells were plated and infected with Ad.Egr-TNF.11D as above. Prior to the addition of chemotherapeutic agents (cisplatin, doxorubicin, 5-FU, gemcitabine and paclitaxel), 20 mM NAC in 0.1 ml complete medium was added to each well. Conditioned medium was collected after 24 hrs. of incubation at 37° C., and stored at −20° C. TNF-α levels were determined by ELISA.

[2] = tested on: PC-3 cells; experiment: N-acetyl cysteine effects on TNF-α production in vitro, PC-3 cells; type: cell-based, human
Description: as §1, §2

[3] = tested on: PC-3 xenografts; type: in vivo, nude mice; conditions: IT vector 5×10^9 p.u. + IP agent vs vector and NS, cisplatin 9, cyclophosphamide 160, doxorubicin 15, 5-FU 100 mg/kg
Description: (§3) In vivo measurement of TNF-α protein. PC-3 (1×10^7 cells) or PROb cells (5×10^6) in 100 μl PBS were injected subcutaneously into the right hind limb of nude mice. Tumor-bearing mice received IT Ad.Egr.TNF (5×10^9 p.u. in 10 μl) with 250 μl of complete media with NS or a chemotherapeutic agent, including cisplatin (9 mg/kg), cyclophosphamide (160 mg/kg), doxorubicin (15 mg/kg), 5-fluorouracil (100 mg/kg) and gemcitabine (500 mg/kg). Each mouse IP injections were administered 20 hrs after transfection, and two consecutive IT and IP injections were given. Animals were euthanized, and xenografts were harvested 48 hrs after the second IP injection. Xenografts were snap-frozen in liquid nitrogen and homogenized in RIPA buffer (150 mM NaCl, 10 mM Tris at pH 7.5, 5 mM EDTA at pH 7.5, 100 mM PMSF, 1 μg/ml leupeptin and 2 μg/ml aprotinin). After three freeze-thaw lysis cycles, the homogenate was centrifuged for 10 minutes at 4° C. TNF-α levels in the supernatants were measured as described above.

[4] = tested on: PROb xenografts; type: in vivo, nude mice; conditions: IT vector 5×10^9 p.u. + IP agent vs vector plus NS, cisplatin 9, cyclophosphamide 160, doxorubicin 15, 5-FU 100, gemcitabine 500 mg/kg
Description: as §3

[5] = tested on: PROb xenografts; conditions: for induction of TNF-α protein: PROb xenografts, vector + IP agent vs vector alone, cisplatin 9, cyclophosphamide 160, doxorubicin 15, 5-FU 100, gemcitabine 500 mg/kg
Description: (§4) Saline or chemotherapeutic agents administered IP on days 1 and 2, including 9 mg/kg cisplatin, 160 mg/kg cyclophosphamide, 15 mg/kg doxorubicin, 100 mg/kg 5-FU and 500 mg/kg gemcitabine. Animals were euthanized, and xenografts were harvested 24 hrs after the second IP injection. Xenografts were snap-frozen in liquid nitrogen and homogenized in RIPA buffer (150 mM NaCl, 10 mM Tris pH 7.5, 5 mM EDTA pH 7.5, 100 mM PMSF, 1 µg/ml leupeptin and 2 μg/ml aprotinin) using a Brinkman Polytron homogenizer (Kinematica AG, Lucerne, Switzerland). After three freeze-thaw lysis cycles, the homogenate was centrifuged at 7800×g in a Sorvall RC-5C SS34 rotor (Kendro Laboratory Products, Newtown, Conn.) for 10 min at 4° C. TNF-α levels in the supernatants were measured by ELISA as described above.

[6] = tested on: PC-3 cells; experiment: Preliminary in vitro TNF-α induction, PC-3 cells; type: cell-based, human; conditions: vector treated PC-3 cells (100 MOI), 24 hrs; cisplatin 250 μM, doxorubicin 3 μM, 5-FU 20 mM, paclitaxel 14 μM
Description: (§5) In vitro measurement of TNF-α protein. PC-3 and PROb cells were plated in 96-well plates, grown overnight, and infected with Ad.Egr.TNF at 100 multiplicities of infection, incubated for three hrs, and were then treated with cisplatin (250 μM), doxorubicin (3 μM), 5-FU (20 mM) or paclitaxel (14 μM). Supernatants were harvested 24 hrs later and human TNF-α production was quantified by ELISA. Experiments were performed in quintuplicate.

[7] = tested on: PROb cells; experiment: Preliminary in vitro TNF-α induction, PROb cells; type: cell-based, rat; conditions: PROb cells treated with Ad.TNF (100 MOI), 24 hrs; cisplatin 250 μM, doxorubicin 3 μM, 5-FU 20 mM, paclitaxel 14 μM
Description: as §5

[8] = tested on: PC-3 xenografts; type: in vivo, athymic nude mice; conditions: vector + IP agent days 1 and 2, cisplatin 9, cyclophosphamide 160, doxorubicin 15, 5-FU 100, gemcitabine 500 mg/kg
Description: as §4

[9] = tested on: PC-3 cells; experiment: Chemo-inducibility of Ad.Egr-TNF.11D in vitro, PC-3 cells
Description: (§6) PC-3 and PROb cells were plated, infected with Ad.Egr.TNF, and incubated as discussed above. After incubation, 200 μl of CM, with or without chemotherapeutic agents, including cisplatin (250 μM), doxorubicin (3 μM), 5-fluorouracil (100 mM), gemcitabine (3 mM) and paclitaxel (14 μM) were added. Conditioned medium was harvested 24 hrs. later, and TNF-α concentration was measured (Quantikine Human TNF-α ELISA kit, R & D Systems, Minneapolis, Minn.).

[10] = tested on: PC-3 cells; experiment: Chemo-sensitivity by MTS assay, PC-3 cells; type: cell-based, human; conditions: PC-3, Ad.Egr-TNF.11D and chemotherapy 24 hrs
Description: (§7) Chemo-sensitivity of PC-3 and PROb cells as determined by MTS assay. PC-3 and PROb cells were plated at a density of 10^5 cells/100 μl medium in 96-well tissue culture plates and incubated overnight. […] After incubation, 200 μl of complete media, with or without chemotherapeutic agents, was added. Chemotherapeutic agents used were at final concentrations of cisplatin at 46 and 460 μM, doxorubicin at 3 and 300 μM, 5-fluorouracil at 2 and 200 mM and paclitaxel at 1.4 and 140 μM. Media was removed 24 hrs later and each well was rinsed with 200 μl of complete media (CM) and aspirated. 100 μl of CM was then added with 20 μl of CellTiter 96® Aqueous One Solution Cell Proliferation Assay solution (Promega, Madison, Wis.), and the cells were allowed to incubate for 1 hr. Absorbance was measured at 490-650 nm.

[11] = tested on: PROb cells; experiment: Chemo-inducibility of Ad.Egr-TNF.11D in vitro, PROb cells; type: cell-based, rat
Description: as §6

[12] = tested on: PROb cells; experiment: Chemo-sensitivity by MTS assay, PROb cells; type: cell-based, rat; conditions: Ad.Egr-TNF.11D and chemotherapy 24 hrs
Description: as §7

[13] = tested on: Egr-1 promoter; experiment: In vitro luciferase reporter assay, Seg-1 cells; type: cell-based, human
Description: (§8) In vitro luciferase reporter assay. […] JM109 competent cells (Stratagene, La Jolla, Calif.) were transformed with these plasmids, endotoxin-free maxipreps (Qiagen, Valencia, Calif.) were prepared, and product confirmation was performed by PCR, sequencing, enzyme restriction, and gel electrophoresis.
(§9) All groups were co-transfected with the Renilla luciferase reporter plasmid construct pRL-TK (HSV thymidine kinase promoter) to normalize for transfection efficiency. […] Cells were harvested 6 hrs later, and luciferase activity was measured using the Dual-Luciferase reporter assay system (Promega).

[14] = tested on: Egr-1 promoter; experiment: In vitro luciferase reporter assay, PROb cells; type: cell-based, rat
Description: as §8, §9

[15] = tested on: Seg-1 xenografts; experiment: In vivo regrowth study, Seg-1 xenografts; parameters: species or system athymic nude mice; conditions: IT vector 2×10^8 p.u., IP cisplatin 3 mg/kg, 4 daily injections, cisplatin line = with null vector
Description: (§10) In vivo regrowth studies. Seg-1 or PROb cells (5×10^6/0.1 ml) were injected in the right hind limb of nude mice. […] IP NS or cisplatin injections were given following the IT vector injection, and 4 consecutive daily IT and IP injections were given. Xenografts were measured every 2 days using calipers and tumor volume was calculated (length×width×thickness)/2. Fractional tumor volumes (V/Vo, Vo=day 0 volume) were calculated and plotted.

[16] = tested on: PROb xenografts; experiment: In vivo regrowth study, PROb xenografts; parameters: species or system athymic nude mice; conditions: IT vector 2×10^8 p.u., IP cisplatin 3 mg/kg, 4 daily injections, cisplatin line = with null vector
Description: as §10

[17] = vector-infected PC-3 cells, 24 hrs, cisplatin 250 μM, 5-FU 100 mM, gemcitabine 3 mM, paclitaxel 14 μM
[18] = higher concentration: cisplatin 460 μM, doxorubicin 300 μM, 5-FU 200 mM, taxol 140 μM
[19] = lower concentration: cisplatin 46 μM, doxorubicin 3 μM, 5-FU 2 mM, taxol 1.4 μM
[20] = vector-infected PROb cells, 24 hrs, cisplatin 250 μM, doxorubicin 3 μM, 5-FU 100 mM, gemcitabine 3 mM, paclitaxel 14 μM

Row | Molecule | induced TNF-α [3] [fold] | increased TNF-α levels [4] [fold] | induction of TNF-α protein [5] [fold] | increased TNF levels [6] [fold] | increased TNF levels [7] [fold] | increase in TNF-α levels [8] [fold] | increase in TNF-α levels [9, 17] [fold] | surviving fraction [10, 18] [%] | surviving fraction [10, 19] [%] | increase in TNF-α levels [11, 20] [fold] | surviving fraction [12, 18] [%] | surviving fraction [12, 19] [%] | other results
1 | CC(=O)N[C@@H](CS)C(=O)O [NAC, N-Acetylcysteine] | – | – | – | – | – | – | – | – | – | – | – | – | effect on induction of TNF-α ([1]; PROb cells treated with cisplatin, 5-FU, gemcitabine or paclitaxel (data not shown)): significantly reduced the induction of TNF-α; effect on induction of TNF-α ([1]; PROb cells, 3 μM doxorubicin, 20 mM NAC): significantly reduced the induction of TNF-α; effect on concentration of TNF-α protein ([2]; Ad.Egr-TNF.11D transduced PC-3 cells treated with cisplatin, 5-FU, gemcitabine and paclitaxel, 20 mM NAC): significantly decreased the concentration of TNF-α protein; effect on concentration of TNF-α protein ([2]; PC-3 cells infected with Ad.Egr-TNF.11D and treated with 100 mM 5-FU, NAC 10 mM to 30 mM): decrease the concentration of TNF-α protein
2 | O=c1[nH]cc(F)c(=O)[nH]1 [5-FU, 5-fluorouracil] | 4.2 | 1.9 | 1.9 | 1.8 | 2.3 | 4.4 | 67.4 | 20 | 80 | 1.7 | 38 | 69 | –
3 | O=P1(N(CCCl)CCCl)NCCCO1 (centres unmarked) [cyclophosphamide, Cyclophosphamide] | 4.4 | 2.8 | 3.0 | – | – | 4.4 | – | – | – | – | – | – | –
4 | Gemcitabine diphosphate | – | 1.8 | 2.5 | – | 5.4 | 3.1 | 2.7 | – | – | 3.5 | – | – | –
5 | N.N.[Cl][Pt][Cl] [cisplatin] | 3.5 | 1.9 | 2.6 | 6.5 | 1.6 | 3.1 | – | 60 | 90 | – | 77 | 77 | LA ([13]; Seg-1 cells transfected with pGL3 425, 50 μM cisplatin): 2.89; increase in LA ([13]; Seg-1 cells transfected with pGL3 425, 50 μM cisplatin vs untreated control): 2.0 fold; LA ([14]; PROb cells transfected with pGL3 425, 50 μM cisplatin): 49.40; increase in LA ([14]; PROb cells transfected with pGL3 425, 50 μM cisplatin vs untreated control): 3.6 fold; increase in TNF-α levels [9]: 3.8 fold; increase in TNF-α levels [11]: 1.3 fold; tumor regression [15]: moderate tumor regression; tumor regression [16]: moderate tumor regression
6 | CC(=O)O[C@H]1C(=O)[C@@]2(C)[C@H]([C@H](OC(=O)c3ccccc3)[C@]3(O)C[C@H](OC(=O)[C@H](O)[C@@H](NC(=O)c4ccccc4)c4ccccc4)C(C)=C1C3(C)C)[C@]1(OC(C)=O)CO[C@@H]1C[C@@H]2O [paclitaxel, Paclitaxel] | – | – | – | 1.8 | 3.0 | – | 1.7 | 10 | 80 | 4.5 | 8 | 85 | systemic toxicity ([5]; mouse, in vivo): severe systemic toxicity

— patent publication US8034791B2, “Activation of Egr-1 promoter by DNA damaging chemotherapeutics” (The University of Chicago, priority 2001, dated 2011)
